Assay results reported in patent US20260216207A1, “7-CARBONYLSTAUROSPORINE DERIVATIVE, PREPARATION METHOD THEREFOR, AND USE THEREOF” (HANGZHOU KEXING BIOCHEM. CO., LTD., priority 2023, published 2026).
Where two headings read alike, the source gives them in different places.

What was measured:
Type in all cases: biochemical
PIM-1 kinase = PIM-1 kinase (Homo sapiens, UniProt P11309); experiment: HTRF KinEASE kinase assay, PIM-1 inhibitory activity
Source text: Inhibitory activities against PIM-1, TRKA, TRKB, FLT3, PKCδ, PKCε, PKCη, PAK4, PLK1, ROCK2, and IKKβ kinases were all determined using an HTRF®KinEASE™ kinase assay kit based on a time-resolved fluorescence technology. 7-carbonylstaurosporine (7OSTA) and TP-3654 were used as positive controls, and 3 duplicate wells were set in parallel. Specific operation steps are as follows. • (1) A kinase buffer was formulated and then used to formulate compounds to be tested, a positive drug, a substrate, kinases, and adenosine triphosphate (ATP). • (2) 2 μL of the substrate, 2 μL of the kinases (the kinases were not added in a negative control group), 4 μL of the compounds to be tested or the positive drug (4 μL of a buffer was added in a positive control group, and 6 μL of a buffer was added in the negative control group), and 2 μL of the ATP were sequentially added into each well of a 384-well microplate, and the microplate was sealed with a membrane and then centrifuged for uniform mixing. • (3) According to different types of the kinases, incubation was performed in an incubator at 37° C. for a specific time. • (4) A detection solution was formulated using XL-665, an antibody, and a detection buffer, 10 µL of the detection solution was added into each well, the microplate was sealed with a membrane and then centrifuged for uniform mixing, and standing was performed at room temperature for 1 hour. • (5) Fluorescence value intensities F1 and F2 at wavelengths of 620 nm and 665 nm were measured using a multifunctional microplate tester, respectively. A signal ratio was calculated as F2/F1×10000, and then an IC50 value was calculated using Graphpad Prism 8 software.

ROCK2 = ROCK2 (Homo sapiens, UniProt O75116); experiment: HTRF KinEASE kinase assay, ROCK2 (kinase selectivity)
ROCK2, sequence (O75116 whole entry, species assumed): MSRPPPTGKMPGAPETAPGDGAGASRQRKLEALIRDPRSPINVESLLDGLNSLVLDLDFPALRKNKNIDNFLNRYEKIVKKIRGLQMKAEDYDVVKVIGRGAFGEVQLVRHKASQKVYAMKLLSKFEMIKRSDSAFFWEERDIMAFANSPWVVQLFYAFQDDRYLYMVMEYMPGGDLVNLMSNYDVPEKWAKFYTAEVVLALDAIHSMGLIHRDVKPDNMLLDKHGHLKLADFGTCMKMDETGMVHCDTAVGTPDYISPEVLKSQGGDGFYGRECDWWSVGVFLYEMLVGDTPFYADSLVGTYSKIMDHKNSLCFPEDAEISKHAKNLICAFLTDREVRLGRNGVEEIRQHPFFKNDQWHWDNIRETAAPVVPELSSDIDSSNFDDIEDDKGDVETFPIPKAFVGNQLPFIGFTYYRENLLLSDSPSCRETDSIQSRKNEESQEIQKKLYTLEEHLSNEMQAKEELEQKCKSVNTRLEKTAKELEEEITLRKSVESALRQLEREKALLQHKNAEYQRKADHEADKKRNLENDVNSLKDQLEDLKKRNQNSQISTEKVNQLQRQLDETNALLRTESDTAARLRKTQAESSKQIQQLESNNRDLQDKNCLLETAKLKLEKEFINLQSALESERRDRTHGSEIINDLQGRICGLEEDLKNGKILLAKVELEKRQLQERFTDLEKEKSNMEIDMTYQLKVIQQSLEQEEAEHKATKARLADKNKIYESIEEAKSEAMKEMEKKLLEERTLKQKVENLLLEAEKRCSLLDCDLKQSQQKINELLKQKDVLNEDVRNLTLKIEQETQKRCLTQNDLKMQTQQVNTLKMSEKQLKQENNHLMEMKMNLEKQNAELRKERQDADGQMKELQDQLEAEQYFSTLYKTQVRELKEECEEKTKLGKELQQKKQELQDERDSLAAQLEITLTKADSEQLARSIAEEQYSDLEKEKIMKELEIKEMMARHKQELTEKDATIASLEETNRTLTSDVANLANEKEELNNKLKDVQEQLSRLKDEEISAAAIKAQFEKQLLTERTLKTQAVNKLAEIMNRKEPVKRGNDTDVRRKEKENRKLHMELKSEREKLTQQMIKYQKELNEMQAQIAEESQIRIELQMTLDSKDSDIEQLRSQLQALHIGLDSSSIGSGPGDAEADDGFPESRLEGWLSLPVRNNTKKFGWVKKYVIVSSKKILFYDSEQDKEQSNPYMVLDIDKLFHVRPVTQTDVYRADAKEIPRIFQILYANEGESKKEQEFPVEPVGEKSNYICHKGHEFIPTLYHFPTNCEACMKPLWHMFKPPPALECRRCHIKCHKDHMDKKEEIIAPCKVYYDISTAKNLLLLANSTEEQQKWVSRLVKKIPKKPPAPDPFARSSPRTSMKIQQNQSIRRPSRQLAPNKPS
Description: (§1) Inhibitory activities against PIM-1, TRKA, TRKB, FLT3, PKCδ, PKCε, PKCη, PAK4, PLK1, ROCK2, and IKKβ kinases were all determined using an HTRF®KinEASE™ kinase assay kit based on a time-resolved fluorescence technology. 7-carbonylstaurosporine (7OSTA) and TP-3654 were used as positive controls, and 3 duplicate wells were set in parallel. […] A signal ratio was calculated as F2/F1×10000, and then an IC50 value was calculated using Graphpad Prism 8 software.

PKCη = PKCη (Homo sapiens, UniProt P24723); experiment: HTRF KinEASE kinase assay, PKCη (kinase selectivity)
PKCη, sequence (P24723 whole entry): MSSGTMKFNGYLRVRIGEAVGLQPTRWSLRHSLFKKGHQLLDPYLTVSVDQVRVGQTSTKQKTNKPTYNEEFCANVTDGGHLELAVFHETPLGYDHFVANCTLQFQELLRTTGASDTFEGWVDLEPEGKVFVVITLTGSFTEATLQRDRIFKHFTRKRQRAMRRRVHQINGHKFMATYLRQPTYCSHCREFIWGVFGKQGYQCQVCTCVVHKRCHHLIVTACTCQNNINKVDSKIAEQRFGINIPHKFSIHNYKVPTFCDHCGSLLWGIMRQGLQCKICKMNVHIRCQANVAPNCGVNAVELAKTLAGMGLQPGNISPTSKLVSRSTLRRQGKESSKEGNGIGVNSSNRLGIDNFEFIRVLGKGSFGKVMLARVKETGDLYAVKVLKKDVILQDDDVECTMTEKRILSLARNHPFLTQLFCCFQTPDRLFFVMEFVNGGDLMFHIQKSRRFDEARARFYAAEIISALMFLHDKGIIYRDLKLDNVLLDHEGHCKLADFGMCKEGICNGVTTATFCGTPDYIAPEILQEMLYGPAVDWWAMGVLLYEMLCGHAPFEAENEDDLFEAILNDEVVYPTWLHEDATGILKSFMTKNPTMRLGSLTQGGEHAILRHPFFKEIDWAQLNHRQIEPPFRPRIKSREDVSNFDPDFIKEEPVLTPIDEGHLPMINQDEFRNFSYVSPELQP
Description: as §1

FLT3 = molecular target: T1, FLT3 (Homo sapiens, UniProt P36888); experiment: HTRF KinEASE kinase assay, FLT3 (kinase selectivity)
T1 sequence (P36888 27-993): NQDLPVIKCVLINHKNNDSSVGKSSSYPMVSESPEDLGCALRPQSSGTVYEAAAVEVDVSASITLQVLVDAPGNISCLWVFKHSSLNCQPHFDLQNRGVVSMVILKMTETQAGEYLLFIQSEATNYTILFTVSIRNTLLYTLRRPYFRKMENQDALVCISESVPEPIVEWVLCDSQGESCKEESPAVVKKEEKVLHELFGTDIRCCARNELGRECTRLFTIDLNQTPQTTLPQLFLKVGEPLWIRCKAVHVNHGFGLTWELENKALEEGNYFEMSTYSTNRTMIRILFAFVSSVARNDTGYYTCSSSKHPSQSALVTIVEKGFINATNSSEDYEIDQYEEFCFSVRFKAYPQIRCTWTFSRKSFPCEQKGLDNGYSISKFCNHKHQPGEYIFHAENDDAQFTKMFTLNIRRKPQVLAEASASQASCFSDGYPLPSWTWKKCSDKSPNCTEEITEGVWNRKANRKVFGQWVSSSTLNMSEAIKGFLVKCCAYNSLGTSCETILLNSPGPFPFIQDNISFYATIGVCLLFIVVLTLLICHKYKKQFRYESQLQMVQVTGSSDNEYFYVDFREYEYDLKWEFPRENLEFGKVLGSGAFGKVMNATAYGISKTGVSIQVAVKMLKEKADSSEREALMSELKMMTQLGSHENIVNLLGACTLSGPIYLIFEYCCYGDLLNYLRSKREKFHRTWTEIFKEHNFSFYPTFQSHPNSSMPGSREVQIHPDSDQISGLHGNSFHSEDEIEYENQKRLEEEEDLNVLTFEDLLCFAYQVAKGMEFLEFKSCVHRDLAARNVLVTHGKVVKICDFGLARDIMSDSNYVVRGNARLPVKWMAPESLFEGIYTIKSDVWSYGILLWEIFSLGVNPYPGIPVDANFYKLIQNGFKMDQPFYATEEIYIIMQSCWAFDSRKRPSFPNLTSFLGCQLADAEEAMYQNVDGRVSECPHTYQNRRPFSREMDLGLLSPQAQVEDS
Description: as §1

PKCδ = PKCδ (Homo sapiens, UniProt Q05655); experiment: HTRF KinEASE kinase assay, PKCδ (kinase selectivity)
PKCδ, sequence (Q05655 whole entry): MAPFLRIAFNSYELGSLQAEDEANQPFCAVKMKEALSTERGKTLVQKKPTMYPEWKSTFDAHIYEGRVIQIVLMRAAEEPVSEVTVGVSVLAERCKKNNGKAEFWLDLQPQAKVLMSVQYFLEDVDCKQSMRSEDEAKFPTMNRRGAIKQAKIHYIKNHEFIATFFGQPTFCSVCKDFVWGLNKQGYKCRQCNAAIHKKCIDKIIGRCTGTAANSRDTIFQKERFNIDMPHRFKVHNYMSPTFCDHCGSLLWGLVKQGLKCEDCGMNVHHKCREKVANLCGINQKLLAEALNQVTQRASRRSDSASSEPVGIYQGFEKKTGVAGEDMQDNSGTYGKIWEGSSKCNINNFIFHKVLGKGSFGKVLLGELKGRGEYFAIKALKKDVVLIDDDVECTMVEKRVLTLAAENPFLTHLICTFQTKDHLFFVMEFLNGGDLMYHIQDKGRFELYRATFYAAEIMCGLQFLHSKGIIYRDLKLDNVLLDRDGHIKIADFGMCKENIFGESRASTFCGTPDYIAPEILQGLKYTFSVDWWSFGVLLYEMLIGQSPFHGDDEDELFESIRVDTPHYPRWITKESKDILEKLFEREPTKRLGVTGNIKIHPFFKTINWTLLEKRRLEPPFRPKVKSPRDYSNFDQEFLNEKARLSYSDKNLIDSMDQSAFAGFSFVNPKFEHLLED
Description: as §1

PLK1 = PLK1 (Homo sapiens, UniProt P53350); experiment: HTRF KinEASE kinase assay, PLK1 (kinase selectivity)
PLK1, sequence (P53350 whole entry, species assumed): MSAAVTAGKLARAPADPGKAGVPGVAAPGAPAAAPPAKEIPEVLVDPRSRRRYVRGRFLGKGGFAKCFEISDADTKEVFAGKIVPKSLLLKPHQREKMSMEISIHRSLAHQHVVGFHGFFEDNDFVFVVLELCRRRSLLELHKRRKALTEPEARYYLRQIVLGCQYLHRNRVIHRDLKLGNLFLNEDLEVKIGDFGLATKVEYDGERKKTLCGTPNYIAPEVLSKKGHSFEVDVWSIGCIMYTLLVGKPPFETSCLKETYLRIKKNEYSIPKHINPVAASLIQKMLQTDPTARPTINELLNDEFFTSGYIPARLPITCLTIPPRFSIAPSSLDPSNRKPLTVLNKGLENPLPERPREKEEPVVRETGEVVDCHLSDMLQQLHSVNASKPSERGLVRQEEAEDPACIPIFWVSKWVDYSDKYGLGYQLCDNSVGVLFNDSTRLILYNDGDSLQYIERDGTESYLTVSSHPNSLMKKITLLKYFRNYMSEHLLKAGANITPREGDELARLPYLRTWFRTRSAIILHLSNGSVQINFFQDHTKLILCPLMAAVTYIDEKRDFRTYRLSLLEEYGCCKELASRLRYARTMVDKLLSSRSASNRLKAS
Description: as §1

TRKB = TRKB (Homo sapiens, UniProt Q16620); experiment: HTRF KinEASE kinase assay, TRKB (kinase selectivity)
TRKB, sequence (Q16620 32-822, species assumed): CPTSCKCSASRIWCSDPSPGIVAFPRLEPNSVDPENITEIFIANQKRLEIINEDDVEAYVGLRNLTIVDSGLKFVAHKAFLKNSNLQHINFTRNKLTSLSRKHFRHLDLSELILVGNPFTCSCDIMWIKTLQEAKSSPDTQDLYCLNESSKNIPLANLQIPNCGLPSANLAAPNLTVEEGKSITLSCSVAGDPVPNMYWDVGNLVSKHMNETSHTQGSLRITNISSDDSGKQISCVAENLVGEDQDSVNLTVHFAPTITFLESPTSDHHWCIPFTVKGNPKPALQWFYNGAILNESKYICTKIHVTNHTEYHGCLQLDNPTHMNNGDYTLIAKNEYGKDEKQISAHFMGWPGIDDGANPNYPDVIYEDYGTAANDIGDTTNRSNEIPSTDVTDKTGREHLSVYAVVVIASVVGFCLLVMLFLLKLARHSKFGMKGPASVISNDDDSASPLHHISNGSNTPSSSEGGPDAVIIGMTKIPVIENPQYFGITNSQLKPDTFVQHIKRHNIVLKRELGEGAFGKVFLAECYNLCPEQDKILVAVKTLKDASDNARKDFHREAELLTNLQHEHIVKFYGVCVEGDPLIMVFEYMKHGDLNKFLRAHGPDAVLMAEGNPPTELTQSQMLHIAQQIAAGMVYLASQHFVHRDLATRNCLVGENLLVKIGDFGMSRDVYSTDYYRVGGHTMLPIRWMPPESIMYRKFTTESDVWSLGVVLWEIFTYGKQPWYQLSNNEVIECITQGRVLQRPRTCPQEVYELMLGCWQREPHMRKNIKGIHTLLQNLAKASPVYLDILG
Description: as §1

IKKβ = molecular target: T2, IKKβ (Homo sapiens, UniProt O14920); experiment: HTRF KinEASE kinase assay, IKKβ (kinase selectivity)
T2 sequence (O14920 1-756): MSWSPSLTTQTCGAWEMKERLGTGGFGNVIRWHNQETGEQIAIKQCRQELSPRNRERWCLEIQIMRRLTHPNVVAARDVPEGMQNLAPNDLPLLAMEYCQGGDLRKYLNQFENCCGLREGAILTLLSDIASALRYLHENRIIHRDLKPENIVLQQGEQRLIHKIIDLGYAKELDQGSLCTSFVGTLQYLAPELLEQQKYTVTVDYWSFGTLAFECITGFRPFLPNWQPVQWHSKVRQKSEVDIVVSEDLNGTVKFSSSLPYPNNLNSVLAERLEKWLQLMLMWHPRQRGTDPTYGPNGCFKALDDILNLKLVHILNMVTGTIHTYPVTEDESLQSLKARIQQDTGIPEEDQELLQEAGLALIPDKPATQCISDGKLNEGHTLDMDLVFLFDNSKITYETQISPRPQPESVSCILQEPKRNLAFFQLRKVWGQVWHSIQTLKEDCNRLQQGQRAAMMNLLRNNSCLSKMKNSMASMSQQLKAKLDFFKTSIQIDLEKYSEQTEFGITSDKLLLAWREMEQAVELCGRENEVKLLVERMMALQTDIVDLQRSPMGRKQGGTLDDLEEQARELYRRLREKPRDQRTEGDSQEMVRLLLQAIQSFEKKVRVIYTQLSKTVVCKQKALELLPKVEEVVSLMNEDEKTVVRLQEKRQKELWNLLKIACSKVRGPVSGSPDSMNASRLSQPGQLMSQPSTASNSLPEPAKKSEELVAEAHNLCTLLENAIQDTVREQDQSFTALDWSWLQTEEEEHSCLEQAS
Description: as §1

TRKA = TRKA (Homo sapiens, UniProt P04629); experiment: HTRF KinEASE kinase assay, TRKA (kinase selectivity)
Description: as §1

PKCε = molecular target: T3, PKCε (Homo sapiens, UniProt Q02156); experiment: HTRF KinEASE kinase assay, PKCε (kinase selectivity)
T3 sequence (Q02156 1-737): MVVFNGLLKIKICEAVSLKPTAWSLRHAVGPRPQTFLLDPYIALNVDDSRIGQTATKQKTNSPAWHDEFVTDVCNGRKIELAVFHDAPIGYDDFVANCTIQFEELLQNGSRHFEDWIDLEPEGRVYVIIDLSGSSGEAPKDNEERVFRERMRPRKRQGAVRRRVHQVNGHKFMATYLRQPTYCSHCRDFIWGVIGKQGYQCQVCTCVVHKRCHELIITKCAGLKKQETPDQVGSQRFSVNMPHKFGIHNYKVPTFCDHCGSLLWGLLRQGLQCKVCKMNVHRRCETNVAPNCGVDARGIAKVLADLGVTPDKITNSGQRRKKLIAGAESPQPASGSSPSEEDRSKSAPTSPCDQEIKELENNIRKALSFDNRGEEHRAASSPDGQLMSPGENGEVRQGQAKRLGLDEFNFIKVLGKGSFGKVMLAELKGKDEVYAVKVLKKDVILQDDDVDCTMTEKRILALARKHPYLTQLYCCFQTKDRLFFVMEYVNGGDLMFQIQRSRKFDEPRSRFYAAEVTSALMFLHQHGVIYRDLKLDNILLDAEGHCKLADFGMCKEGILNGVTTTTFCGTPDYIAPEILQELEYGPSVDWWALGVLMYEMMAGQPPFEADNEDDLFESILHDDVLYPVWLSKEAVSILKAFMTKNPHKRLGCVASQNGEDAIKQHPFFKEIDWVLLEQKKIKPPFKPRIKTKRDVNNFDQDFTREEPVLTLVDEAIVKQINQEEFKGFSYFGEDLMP
Description: as §1

PAK4 = PAK4 (Homo sapiens, UniProt O96013); experiment: HTRF KinEASE kinase assay, PAK4 (kinase selectivity)
PAK4, sequence (O96013 whole entry, species assumed): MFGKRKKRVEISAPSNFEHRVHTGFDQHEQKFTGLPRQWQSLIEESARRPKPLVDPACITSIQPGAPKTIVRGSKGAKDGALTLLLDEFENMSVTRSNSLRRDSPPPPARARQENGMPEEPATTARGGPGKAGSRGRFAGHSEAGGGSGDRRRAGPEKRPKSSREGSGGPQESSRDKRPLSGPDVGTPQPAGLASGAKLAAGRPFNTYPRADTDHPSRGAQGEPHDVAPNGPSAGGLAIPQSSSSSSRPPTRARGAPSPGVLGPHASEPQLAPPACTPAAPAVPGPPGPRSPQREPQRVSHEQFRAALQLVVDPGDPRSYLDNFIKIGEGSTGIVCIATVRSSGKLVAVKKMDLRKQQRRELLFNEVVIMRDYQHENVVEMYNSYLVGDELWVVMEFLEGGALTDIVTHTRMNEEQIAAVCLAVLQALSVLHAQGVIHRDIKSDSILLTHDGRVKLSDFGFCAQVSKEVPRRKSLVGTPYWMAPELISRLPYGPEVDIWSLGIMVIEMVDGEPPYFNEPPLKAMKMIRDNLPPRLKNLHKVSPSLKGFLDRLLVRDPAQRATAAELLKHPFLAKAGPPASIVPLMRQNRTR
Description: as §1

[1] = HTRF KinEASE kit, 3 duplicate wells, read-out: PIM-1 kinase inhibitory activity (IC50)

PIM-1 kinase, sequence (P11309 whole entry): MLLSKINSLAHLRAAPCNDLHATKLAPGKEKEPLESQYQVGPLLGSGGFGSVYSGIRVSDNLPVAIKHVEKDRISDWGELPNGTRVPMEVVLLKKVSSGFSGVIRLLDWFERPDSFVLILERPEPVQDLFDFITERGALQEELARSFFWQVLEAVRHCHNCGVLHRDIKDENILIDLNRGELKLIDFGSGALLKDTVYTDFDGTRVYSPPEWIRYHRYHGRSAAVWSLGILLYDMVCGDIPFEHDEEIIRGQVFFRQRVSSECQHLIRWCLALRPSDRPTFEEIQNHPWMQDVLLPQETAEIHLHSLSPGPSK

Row | IC50 (PIM-1 kinase; [1]) | SMILES | other results
1 | 41 nM | CCC(=O)N(C)[C@@H]1C[C@H]2O[C@@](C)([C@@H]1OC)n1c3ccccc3c3c4c(c5c6ccccc6n2c5c31)C(=O)NC4=O [Compound 1] | 
2 | 83 nM | CCCC(=O)N(C)[C@@H]1C[C@H]2O[C@@](C)([C@@H]1OC)n1c3ccccc3c3c4c(c5c6ccccc6n2c5c31)C(=O)NC4=O [Compound 2] | 
3 | > 1000 nM | CCCCC(=O)N(C)[C@@H]1C[C@H]2O[C@@](C)([C@@H]1OC)n1c3ccccc3c3c4c(c5c6ccccc6n2c5c31)C(=O)NC4=O [Compound 3] | 
4 | > 1000 nM | CCCCCC(=O)N(C)[C@@H]1C[C@H]2O[C@@](C)([C@@H]1OC)n1c3ccccc3c3c4c(c5c6ccccc6n2c5c31)C(=O)NC4=O [Compound 4] | 
5 | > 1000 nM | CCCCCCC(=O)N(C)[C@@H]1C[C@H]2O[C@@](C)([C@@H]1OC)n1c3ccccc3c3c4c(c5c6ccccc6n2c5c31)C(=O)NC4=O [Compound 5] | 
6 | > 1000 nM | CCCCCCCC(=O)N(C)[C@@H]1C[C@H]2O[C@@](C)([C@@H]1OC)n1c3ccccc3c3c4c(c5c6ccccc6n2c5c31)C(=O)NC4=O [Compound 6] | 
7 |  | CN[C@@H]1C[C@H]2O[C@@](C)([C@@H]1OC)n1c3ccccc3c3c4c(c5c6ccccc6n2c5c31)C(=O)NC4=O [Compound 7OSTA, 7-carbonylstaurosporine] | IC50 (ROCK2): 35.9 nM; IC50 (PKCη): 2.1 nM; IC50 (FLT3): 15.3 nM; IC50 (PKCδ): 1.4 nM; IC50 (PLK1): 308 nM; IC50 (TRKB): 2.4 nM; IC50 (IKKβ): > 1000 nM; IC50 (TRKA): 0.4 nM; IC50 (PKCε): 2.3 nM; IC50 (PAK4): 37 nM; IC50 (PIM-1 kinase): 5.4 nM
8 | 445 nM | CO[C@@H]1[C@H](N(C)C(=O)C2CC2)C[C@H]2O[C@]1(C)n1c3ccccc3c3c4c(c5c6ccccc6n2c5c31)C(=O)NC4=O [Compound 7] | 
9 | 52.4 nM | CO[C@@H]1[C@H](N(C)C(=O)c2cccs2)C[C@H]2O[C@]1(C)n1c3ccccc3c3c4c(c5c6ccccc6n2c5c31)C(=O)NC4=O [Compound 8] | 
10 | > 1000 nM | CO[C@@H]1[C@H](N(C)C(=O)c2ccc3c(c2)OCO3)C[C@H]2O[C@]1(C)n1c3ccccc3c3c4c(c5c6ccccc6n2c5c31)C(=O)NC4=O [Compound 9] | 
11 | 81.4 nM | CO[C@@H]1[C@H](N(C)C(=O)C=C(C)C)C[C@H]2O[C@]1(C)n1c3ccccc3c3c4c(c5c6ccccc6n2c5c31)C(=O)NC4=O [Compound 10] | 
12 | > 1000 nM | CO[C@@H]1[C@H](N(C)C(=O)/C=C/c2ccccc2)C[C@H]2O[C@]1(C)n1c3ccccc3c3c4c(c5c6ccccc6n2c5c31)C(=O)NC4=O [Compound 11] | 
13 | 42.9 nM | CO[C@@H]1[C@H](N(C)C(=O)CCC(=O)O)C[C@H]2O[C@]1(C)n1c3ccccc3c3c4c(c5c6ccccc6n2c5c31)C(=O)NC4=O [Compound 12] | 
14 | 39.1 nM | CO[C@@H]1[C@H](N(C)C(=O)CCCC(=O)O)C[C@H]2O[C@]1(C)n1c3ccccc3c3c4c(c5c6ccccc6n2c5c31)C(=O)NC4=O [Compound 13] | 
15 | 53.8 nM | CO[C@@H]1[C@H](N(C)C(=O)CSCC(=O)O)C[C@H]2O[C@]1(C)n1c3ccccc3c3c4c(c5c6ccccc6n2c5c31)C(=O)NC4=O [Compound 14] | 
16 | 61.1 nM | CO[C@@H]1[C@H](N(C)C(=O)CCCCC(=O)O)C[C@H]2O[C@]1(C)n1c3ccccc3c3c4c(c5c6ccccc6n2c5c31)C(=O)NC4=O [Compound 15] | 
17 | 65.9 nM | CO[C@@H]1[C@H](N(C)C(=O)CCCCCCC(=O)O)C[C@H]2O[C@]1(C)n1c3ccccc3c3c4c(c5c6ccccc6n2c5c31)C(=O)NC4=O [Compound 16] | 
18 | 32.4 nM | CO[C@@H]1[C@H](N(C)C(=O)CCC(=O)Nc2cc[nH]n2)C[C@H]2O[C@]1(C)n1c3ccccc3c3c4c(c5c6ccccc6n2c5c31)C(=O)NC4=O [Compound 18] | 
19 | 31.1 nM | CC(C)(O)[C@H]1CC[C@H](Nc2ccc3ncc(-c4cccc(C(F)(F)F)c4)n3n2)CC1 [TP-3654, reference compound] | 
